Results from patent US8314123B2, “5, 6, or 7-substituted -3-(hetero) arylisoquinolinamine derivatives and therapeutic use thereof” (Rexahn Pharmaceuticals, Inc., priority 2006, dated 2012).

Tested on: PANC-1 (pancreas)
Experiment: In vitro cell proliferation assay (SRB), PANC-1
Format: cell-based
Settings: Homo sapiens, SRB method, 96 hours, read-out: Inhibition of cell growth (IC50, μM) PANC-1
Protocol: (§1) Cancer cell lines to determine the effect of 5, 6, or 7-substituted-3-(hetero)arylisoquinolinamine compounds were obtained from the following sources: Human MDA-MB-231 (breast), PC3 (prostate), HCT-15 (colon), HCT116 (colon), OVCAR-3 (ovary), Caki-1 (kidney), PANC-1 (pancreas), SNB-19 (glioblastoma) and SK-MEL-28 (melanoma) from the American Type Culture Collection (ATCC) (Manassas, Va.). PC3, OVCAR-3, SK-MEL-28 and SNB-19 were grown in RPMI1640 medium (Invitrogen, Carlsbad, Calif.) supplemented with 10% fetal bovine serum (“FBS”), 1 mM sodium pyruvate, 10 mM HEPES and 100 U/ml penicillin and 100 μg/ml streptomycin (“P/S”). MDA-MB-231, Caki-1, HCT-15 (colon) and PANC-1 cells were maintained in Dulbecco's modified Eagle's medium (“DMEM”, Invitrogen) supplemented with 10% FBS, P/S and 10 mM HEPES. HCT116 cells were maintained in DMEM supplemented with 10% FBS, P/S and 10 mM HEPES for in vitro cell proliferation assay and in RPMI1640 medium supplemented with 10% FBS, 1 mM sodium pyruvate, 10 mM HEPES and P/S for in vitro cell cycle analysis. All cells were incubated at 37° C. under humidified 5% CO2.
(§2) The growth inhibition of the 5, 6, or 7-substituted-3-(hetero)arylisoquinolinamine derivatives against a variety of human tumor cells was evaluated to study the relative importance of particular substituent groups on the compounds. The 5, 6, or 7-substituted-3-(hetero)arylisoquinolinamine derivatives, prepared as described above, were tested with DMSO as a control.
(§3) The growth inhibition assay of representative 5, 6, or 7-substituted-3-(hetero)arylisoquinolinamine derivatives against human tumor cell lines was performed using the Sulforhodamine B (“SRB”) method (Skehan et al., J. National Cancer Institute, 82: 1107-1112 (1990)). Briefly, exponentially growing tumor cells were seeded into a 96-well plate at a density of 2-3×10^3 cells/well and treated with 5, 6, or 7-substituted-3-(hetero)arylisoquinolinamine compounds the next day. Triplicate wells were used for each treatment. The cells were incubated with the various compounds for 96 hours at 37° C. in a humidified 5% CO2 atmosphere. After 96-hour incubation, cells were fixed with 10% trichloroacetic acid (“TCA”), incubated for 1 hour at 4° C., and washed 3 times with tap water. Subsequently, cells were stained with 0.4% sulforhodamine B in 1% acetic acid for 30 minutes, washed 4 times with 1% acetic acid, and air-dried again. After 5 minutes agitation in 10 mM Tris solution, the absorbance of each well was measured at 530 nm using Benchmark Plus Microplate reader (Bio-Rad Laboratories, Hercules, Calif.).
(§4) To translate the OD530 values into the number of live cells in each well, the OD530 values were compared to those on standard OD530-versus-cell number curves generated for each cell line. The percent survival was calculated using the formula: % Survival=live cell number [test]/live cell number [control]×100
(§5) The IC50 values were calculated by non-linear regression analysis.

Row | IC50 | SMILES
1 | 2.14 µM | Cc1ccc2cc(-c3ccccc3F)nc(N)c2c1 [Compound 41, 3-(2-Fluorophenyl)-7-methylisoquinolin-1-amine]
2 | 0.38 µM | COc1cc(OC)cc(-c2cc3cc(C)ccc3c(N)n2)c1 [Compound 30, 3-(3,5-Dimethoxyphenyl)-6-methylisoquinolin-1-amine]
3 | 0.7 µM | COc1cc(OC)cc(-c2cc3cc(OC)c(OC)cc3c(N)n2)c1 [Compound 55, 6,7-Dimethoxy-3-(3,5-dimethoxyphenyl)isoquinolin-1-amine]
4 | 0.47 µM | COc1cccc(-c2cc3ccc(C)cc3c(N)n2)c1 [Compound 38, 3-(3-Methoxyphenyl)-7-methylisoquinolin-1-amine]
5 | 0.67 µM | COc1cc2cc(-c3ccccc3)nc(N)c2cc1OC [Compound 51, 6,7-Dimethoxy-3-phenylisoquinolin-1-amine]

Tested on: Caki-1 (kidney)
Experiment: In vitro cell proliferation assay (SRB), Caki-1
Format: cell-based
Settings: Homo sapiens, SRB method, 96 hours, read-out: Inhibition of cell growth (IC50, μM) Caki-1
Protocol: as §1, §2, §3, §4, §5

Row | SMILES | IC50
6 | Cc1ccc2cc(-c3ccccc3F)nc(N)c2c1 [Compound 41, 3-(2-Fluorophenyl)-7-methylisoquinolin-1-amine] | 0.59 µM
7 | COc1cc(OC)cc(-c2cc3cc(C)ccc3c(N)n2)c1 [Compound 30, 3-(3,5-Dimethoxyphenyl)-6-methylisoquinolin-1-amine] | 0.16 µM
8 | COc1cc(OC)cc(-c2cc3cc(OC)c(OC)cc3c(N)n2)c1 [Compound 55, 6,7-Dimethoxy-3-(3,5-dimethoxyphenyl)isoquinolin-1-amine] | 0.54 µM
9 | COc1cccc(-c2cc3ccc(C)cc3c(N)n2)c1 [Compound 38, 3-(3-Methoxyphenyl)-7-methylisoquinolin-1-amine] | 0.14 µM
10 | COc1cc2cc(-c3ccccc3)nc(N)c2cc1OC [Compound 51, 6,7-Dimethoxy-3-phenylisoquinolin-1-amine] | 0.59 µM

Tested on: MDA-MB-231 (breast)
Experiment: In vitro cell proliferation assay (SRB), MDA-MB-231
Format: cell-based
Settings: Homo sapiens, SRB method, 96 hours, read-out: Inhibition of cell growth (IC50, μM) MDA-MB-231
Protocol: as §1, §2, §3, §4, §5

Row | IC50 | SMILES
11 | 0.72 µM | Cc1ccc2cc(-c3ccccc3F)nc(N)c2c1 [Compound 41, 3-(2-Fluorophenyl)-7-methylisoquinolin-1-amine]
12 | 0.18 µM | COc1cc(OC)cc(-c2cc3cc(C)ccc3c(N)n2)c1 [Compound 30, 3-(3,5-Dimethoxyphenyl)-6-methylisoquinolin-1-amine]
13 | 0.4 µM | COc1cc(OC)cc(-c2cc3cc(OC)c(OC)cc3c(N)n2)c1 [Compound 55, 6,7-Dimethoxy-3-(3,5-dimethoxyphenyl)isoquinolin-1-amine]
14 | 0.17 µM | COc1cccc(-c2cc3ccc(C)cc3c(N)n2)c1 [Compound 38, 3-(3-Methoxyphenyl)-7-methylisoquinolin-1-amine]
15 | 0.44 µM | COc1cc2cc(-c3ccccc3)nc(N)c2cc1OC [Compound 51, 6,7-Dimethoxy-3-phenylisoquinolin-1-amine]

Tested on: HCT116 (colon)
Experiment: In vitro cell proliferation assay (SRB), HCT116
Format: cell-based
Settings: Homo sapiens, HCT-116; SRB method, 96 hours; Table 3; read-out: Inhibition of cell growth (IC50, μM) HCT116
Protocol: as §1, §2, §3, §4, §5

Row | IC50 | SMILES
16 | 1.22 µM | Cc1ccc2cc(-c3ccccc3F)nc(N)c2c1 [Compound 41, 3-(2-Fluorophenyl)-7-methylisoquinolin-1-amine]
17 | 0.24 µM | COc1cc(OC)cc(-c2cc3cc(C)ccc3c(N)n2)c1 [Compound 30, 3-(3,5-Dimethoxyphenyl)-6-methylisoquinolin-1-amine]
18 | 0.77 µM | COc1cc(OC)cc(-c2cc3cc(OC)c(OC)cc3c(N)n2)c1 [Compound 55, 6,7-Dimethoxy-3-(3,5-dimethoxyphenyl)isoquinolin-1-amine]
19 | 0.21 µM | COc1cccc(-c2cc3ccc(C)cc3c(N)n2)c1 [Compound 38, 3-(3-Methoxyphenyl)-7-methylisoquinolin-1-amine]
20 | 0.52 µM | COc1cc2cc(-c3ccccc3)nc(N)c2cc1OC [Compound 51, 6,7-Dimethoxy-3-phenylisoquinolin-1-amine]

Tested on: PC3 (prostate)
Experiment: In vitro cell proliferation assay (SRB), PC3
Format: cell-based
Settings: Homo sapiens; SRB method, 96 hours; read-out: Inhibition of cell growth (IC50, μM) PC3
Protocol: as §1, §2, §3, §4, §5

Row | IC50 | SMILES
21 | 2.76 µM | Cc1ccc2cc(-c3ccccc3F)nc(N)c2c1 [Compound 41, 3-(2-Fluorophenyl)-7-methylisoquinolin-1-amine]
22 | 0.43 µM | COc1cc(OC)cc(-c2cc3cc(C)ccc3c(N)n2)c1 [Compound 30, 3-(3,5-Dimethoxyphenyl)-6-methylisoquinolin-1-amine]
23 | 0.72 µM | COc1cc(OC)cc(-c2cc3cc(OC)c(OC)cc3c(N)n2)c1 [Compound 55, 6,7-Dimethoxy-3-(3,5-dimethoxyphenyl)isoquinolin-1-amine]
24 | 0.42 µM | COc1cccc(-c2cc3ccc(C)cc3c(N)n2)c1 [Compound 38, 3-(3-Methoxyphenyl)-7-methylisoquinolin-1-amine]
25 | 0.58 µM | COc1cc2cc(-c3ccccc3)nc(N)c2cc1OC [Compound 51, 6,7-Dimethoxy-3-phenylisoquinolin-1-amine]

Tested on: SK-MEL-28 (melanoma)
Experiment: In vitro cell proliferation assay (SRB), SK-MEL-28
Format: cell-based
Settings: Homo sapiens, SRB method, 96 hours, read-out: Inhibition of cell growth (IC50, μM) SK-MEL-28
Protocol: as §1, §2, §3, §4, §5

Row | IC50 | SMILES
26 | 1.62 µM | Cc1ccc2cc(-c3ccccc3F)nc(N)c2c1 [Compound 41, 3-(2-Fluorophenyl)-7-methylisoquinolin-1-amine]
27 | 0.41 µM | COc1cc(OC)cc(-c2cc3cc(C)ccc3c(N)n2)c1 [Compound 30, 3-(3,5-Dimethoxyphenyl)-6-methylisoquinolin-1-amine]
28 | 0.69 µM | COc1cc(OC)cc(-c2cc3cc(OC)c(OC)cc3c(N)n2)c1 [Compound 55, 6,7-Dimethoxy-3-(3,5-dimethoxyphenyl)isoquinolin-1-amine]
29 | 0.41 µM | COc1cccc(-c2cc3ccc(C)cc3c(N)n2)c1 [Compound 38, 3-(3-Methoxyphenyl)-7-methylisoquinolin-1-amine]
30 | 0.75 µM | COc1cc2cc(-c3ccccc3)nc(N)c2cc1OC [Compound 51, 6,7-Dimethoxy-3-phenylisoquinolin-1-amine]

Tested on: OVCAR-3 (ovary)
Experiment: In vitro cell proliferation assay (SRB), OVCAR3
Format: cell-based
Settings: Homo sapiens, SRB method, 96 hours, read-out: Inhibition of cell growth (IC50, μM) OVCAR3
Protocol: as §1, §2, §3, §4, §5

Row | IC50 | SMILES
31 | 0.91 µM | Cc1ccc2cc(-c3ccccc3F)nc(N)c2c1 [Compound 41, 3-(2-Fluorophenyl)-7-methylisoquinolin-1-amine]
32 | 0.18 µM | COc1cc(OC)cc(-c2cc3cc(C)ccc3c(N)n2)c1 [Compound 30, 3-(3,5-Dimethoxyphenyl)-6-methylisoquinolin-1-amine]
33 | 0.19 µM | COc1cc(OC)cc(-c2cc3cc(OC)c(OC)cc3c(N)n2)c1 [Compound 55, 6,7-Dimethoxy-3-(3,5-dimethoxyphenyl)isoquinolin-1-amine]
34 | 0.24 µM | COc1cccc(-c2cc3ccc(C)cc3c(N)n2)c1 [Compound 38, 3-(3-Methoxyphenyl)-7-methylisoquinolin-1-amine]
35 | 0.27 µM | COc1cc2cc(-c3ccccc3)nc(N)c2cc1OC [Compound 51, 6,7-Dimethoxy-3-phenylisoquinolin-1-amine]

Tested on: SNB-19 (glioblastoma)
Experiment: In vitro cell proliferation assay (SRB), SNB19
Format: cell-based
Settings: Homo sapiens, SRB method, 96 hours, read-out: Inhibition of cell growth (IC50, μM) SNB19
Protocol: as §1, §2, §3, §4, §5

Row | IC50 | SMILES
36 | 2.2 µM | Cc1ccc2cc(-c3ccccc3F)nc(N)c2c1 [Compound 41, 3-(2-Fluorophenyl)-7-methylisoquinolin-1-amine]
37 | 0.47 µM | COc1cc(OC)cc(-c2cc3cc(C)ccc3c(N)n2)c1 [Compound 30, 3-(3,5-Dimethoxyphenyl)-6-methylisoquinolin-1-amine]
38 | 0.4 µM | COc1cc(OC)cc(-c2cc3cc(OC)c(OC)cc3c(N)n2)c1 [Compound 55, 6,7-Dimethoxy-3-(3,5-dimethoxyphenyl)isoquinolin-1-amine]
39 | 0.48 µM | COc1cccc(-c2cc3ccc(C)cc3c(N)n2)c1 [Compound 38, 3-(3-Methoxyphenyl)-7-methylisoquinolin-1-amine]
40 | 0.71 µM | COc1cc2cc(-c3ccccc3)nc(N)c2cc1OC [Compound 51, 6,7-Dimethoxy-3-phenylisoquinolin-1-amine]
